These compounds were tested against T1, NLRP3 (Homo sapiens, UniProt Q96P20) (assay: IL-1β Secretion Assay (NLRP3-dependent IL1β secretion in THP1 cells)). Conditions: PMA-differentiated THP-1 cells; compounds incubated 20 h; 2.5 μM Nigericin 3 h; HTRF IL-1β readout; read-out: IC50 IL-1β Inhibition.
T1 construct: host or cells: THP-1 cells differentiated with PMA
T1 sequence (Q96P20 whole entry): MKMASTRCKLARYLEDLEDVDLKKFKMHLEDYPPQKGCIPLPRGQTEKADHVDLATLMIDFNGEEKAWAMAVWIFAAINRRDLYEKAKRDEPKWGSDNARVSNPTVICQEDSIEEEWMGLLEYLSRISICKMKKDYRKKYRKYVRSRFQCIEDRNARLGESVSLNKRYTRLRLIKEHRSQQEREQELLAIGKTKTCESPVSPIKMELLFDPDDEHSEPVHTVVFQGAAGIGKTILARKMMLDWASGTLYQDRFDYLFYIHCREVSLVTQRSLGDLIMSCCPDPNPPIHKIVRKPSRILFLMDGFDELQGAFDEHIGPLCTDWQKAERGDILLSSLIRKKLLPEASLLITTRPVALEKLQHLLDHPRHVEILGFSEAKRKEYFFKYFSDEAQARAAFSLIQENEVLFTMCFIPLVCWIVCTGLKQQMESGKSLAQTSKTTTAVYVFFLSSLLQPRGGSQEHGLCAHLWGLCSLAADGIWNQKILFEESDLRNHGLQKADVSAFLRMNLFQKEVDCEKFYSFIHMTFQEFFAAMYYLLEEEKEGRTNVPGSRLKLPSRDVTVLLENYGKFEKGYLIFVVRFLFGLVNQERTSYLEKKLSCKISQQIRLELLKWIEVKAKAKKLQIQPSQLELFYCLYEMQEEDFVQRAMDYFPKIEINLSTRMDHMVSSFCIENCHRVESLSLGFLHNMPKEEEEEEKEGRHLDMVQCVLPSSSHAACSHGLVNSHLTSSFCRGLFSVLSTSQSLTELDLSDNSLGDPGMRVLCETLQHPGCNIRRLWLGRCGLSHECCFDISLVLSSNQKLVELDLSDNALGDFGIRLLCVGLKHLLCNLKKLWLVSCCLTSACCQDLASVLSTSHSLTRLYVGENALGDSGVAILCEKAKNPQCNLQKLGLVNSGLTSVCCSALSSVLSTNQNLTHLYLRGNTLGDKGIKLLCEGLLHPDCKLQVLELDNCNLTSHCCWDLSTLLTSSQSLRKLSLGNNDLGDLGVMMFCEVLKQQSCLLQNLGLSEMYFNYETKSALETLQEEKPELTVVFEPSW
Assay type: cell-based
Outline: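 THP-1 cells differentiated with 100 ng/mL PMA for 24 h, then given compound (7-point 3-fold series, 1:200 from DMSO) for 20 h in RPMI+5% FBS. NLRP3 activated with 2.5 μM nigericin for 3 h; secreted IL-1β measured by HTRF; IC50 from logistic fit of % inhibition.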
Compound `COc1ccc(-c2nnc(NC(C)c3cccc(O)c3)n3cncc23)c(C(F)(F)F)c1` (stereo not shown) [Compound 251, 3-[1-({1-[4-methoxy-2-(trifluoromethyl)phenyl]imidazo[1,5-d][1,2,4]triazin-4-yl}amino)ethyl]phenol] has an IC50 of under 1 nM.
For `CN1C[C@H](F)C[C@@H](Nc2nnc(-c3ccc(C(F)(F)F)cc3C(F)(F)F)c3cncn23)C1` [Compound 252, 1-[2,4-bis(trifluoromethyl)phenyl]-N-[(3R,5R)-5-fluoro-1-methylpiperidin-3-yl]imidazo[1,5-d][1,2,4]triazin-4-amine], the IC50 was 1 to 10 nM.
For `OCCN1CCC[C@@H](Nc2nnc(-c3ccc(C(F)(F)F)cc3C(F)(F)F)c3cncn23)C1` [Compound 253, 2-[(3R)-3-({1-[2,4-bis(trifluoromethyl)phenyl]imidazo[1,5-d][1,2,4]triazin-4-yl}amino)piperidin-1-yl]ethan-1-ol], the IC50 was 1 to 10 nM.
`FC(F)(F)c1ccc(-c2nnc(N[C@@H]3CCCOC3)n3cncc23)c(C(F)(F)F)c1` [Compound 254, 1-[2,4-bis(trifluoromethyl)phenyl]-N-[(3R)-oxan-3-yl]imidazo[1,5-d][1,2,4]triazin-4-amine] showed an IC50 of 10 to 100 nM.
Compound `OC[C@H]1C[C@@H](Nc2nnc(-c3ccc(C(F)(F)F)cc3OC(F)(F)F)c3cncn23)C1` [Compound 255, [(1s,3s)-3-({1-[2-(trifluoromethoxy)-4-(trifluoromethyl)phenyl]imidazo[1,5-d][1,2,4]triazin-4-yl}amino)cyclobutyl]methanol] has an IC50 of 1 to 10 nM.
With `O=C1NCCC1Nc1nnc(-c2ccc(C(F)(F)F)cc2OC(F)(F)F)c2cncn12` (stereo not shown) [Compound 256, 3-({1-[2-(trifluoromethoxy)-4-(trifluoromethyl)phenyl]imidazo[1,5-d][1,2,4]triazin-4-yl}amino)pyrrolidin-2-one] the IC50 was under 1 nM.
Compound `OC[C@H]1C[C@@H](Nc2nnc(-c3ccc(C(F)(F)F)cc3C(F)(F)F)c3cncn23)C1` [Compound 257, [(1s,3s)-3-({1-[2,4-bis(trifluoromethyl)phenyl]imidazo[1,5-d][1,2,4]triazin-4-yl}amino)cyclobutyl]methanol] has an IC50 of 1 to 10 nM.
In the case of `OCCN1CCC[C@@H](Nc2nnc(-c3ccc(OC(F)F)cc3OC(F)(F)F)c3cncn23)C1` [Compound 258, 2-[(3R)-3-({1-[4-(difluoromethoxy)-2-(trifluoromethoxy)phenyl]imidazo[1,5-d][1,2,4]triazin-4-yl}amino)piperidin-1-yl]ethan-1-ol], the IC50 is reported as 1 to 10 nM.
With `CC(Nc1nnc(-c2ccc(OC(F)F)cc2OC(F)(F)F)c2cncn12)c1cccc(O)c1` (stereo not shown) [Compound 259] the IC50 was under 1 nM.
For `O=C1NCCC1Nc1nnc(-c2ccc(OC(F)F)cc2OC(F)(F)F)c2cncn12` (stereo not shown) [Compound 260, 3-({1-[4-(difluoromethoxy)-2-(trifluoromethoxy)phenyl]imidazo[1,5-d][1,2,4]triazin-4-yl}amino)pyrrolidin-2-one], the IC50 was 1 to 10 nM.
`CCN1CCC[C@@H](Nc2nnc(-c3ccc(C(F)(F)F)cc3CC(F)(F)F)c3cncn23)C1` [Compound 261, N-[(3R)-1-ethylpiperidin-3-yl]-1-[2-(2,2,2-trifluoroethyl)-4-(trifluoromethyl)phenyl]imidazo[1,5-d][1,2,4]triazin-4-amine] gave an IC50 of under 1 nM.
For `O[C@H]1CCC[C@@H](Nc2nnc(-c3ccc(C(F)(F)F)cc3CC(F)(F)F)c3cncn23)C1` [Compound 262, (1S,3R)-3-({1-[2-(2,2,2-trifluoroethyl)-4-(trifluoromethyl)phenyl]imidazo[1,5-d][1,2,4]triazin-4-yl}amino)cyclohexan-1-ol], the IC50 was under 1 nM.
With `C[C@]1(O)C[C@@H](Nc2nnc(-c3ccc(C(F)(F)F)cc3CC(F)(F)F)c3cncn23)C1` [Compound 263, (1s,3s)-1-methyl-3-({1-[2-(2,2,2-trifluoroethyl)-4-(trifluoromethyl)phenyl]imidazo[1,5-d][1,2,4]triazin-4-yl}amino)cyclobutan-1-ol] the IC50 was under 1 nM.
With `OC[C@H]1C[C@@H](Nc2nnc(-c3ccc(C(F)(F)F)cc3CC(F)(F)F)c3cncn23)C1` [Compound 264] the IC50 was under 1 nM.
`O=C1NCCC1Nc1nnc(-c2ccc(C(F)(F)F)cc2CC(F)(F)F)c2cncn12` (stereo not shown) [Compound 265, 3-({1-[2-(2,2,2-trifluoroethyl)-4-(trifluoromethyl)phenyl]imidazo[1,5-d][1,2,4]triazin-4-yl}amino)pyrrolidin-2-one] was tested, and the IC50 was under 1 nM.
Work on `CC(Nc1nnc(-c2ccc(C(F)(F)F)cc2CC(F)(F)F)c2cncn12)c1cccc(O)c1` (stereo not shown) [Compound 266] yielded an IC50 of under 1 nM.
In the case of `FC(F)(F)Cc1cc(C(F)(F)F)ccc1-c1nnc(Nc2cc[nH]n2)n2cncc12` [Compound 267, N-(1H-pyrazol-3-yl)-1-[2-(2,2,2-trifluoroethyl)-4-(trifluoromethyl)phenyl]imidazo[1,5-d][1,2,4]triazin-4-amine], the IC50 is reported as 1 to 10 nM.
Compound `COc1ccc(-c2nnc(N[C@@H]3CCOC[C@H]3O)n3cncc23)c(OC(F)F)c1` [Compound 268, (3S,4R)-4-({1-[2-(difluoromethoxy)-4-methoxyphenyl]imidazo[1,5-d][1,2,4]triazin-4-yl}amino)oxan-3-ol] has an IC50 of 1 to 10 nM.
In the case of `COc1ccc(-c2nnc(NC3CCNC3=O)n3cncc23)c(OC(F)F)c1` (stereo not shown) [Compound 269, 3-({1-[2-(difluoromethoxy)-4-methoxyphenyl]imidazo[1,5-d][1,2,4]triazin-4-yl}amino)pyrrolidin-2-one], the IC50 is reported as 1 to 10 nM.
Work on `COc1ccc(-c2nnc(N[C@@H]3CCCC[C@H]3O)n3cncc23)c(OC(F)F)c1` [Compound 270, (1R,2R)-2-({1-[2-(difluoromethoxy)-4-methoxyphenyl]imidazo[1,5-d][1,2,4]triazin-4-yl}amino)cyclohexan-1-ol] yielded an IC50 of 1 to 10 nM.
`CCN1CCC[C@@H](Nc2nnc(-c3ccc(C(F)(F)F)cc3C(F)(F)F)c3cncn23)C1` [Compound 271, 1-[2,4-bis(trifluoromethyl)phenyl]-N-[(3R)-1-ethylpiperidin-3-yl]imidazo[1,5-d][1,2,4]triazin-4-amine] was tested, and the IC50 was under 1 nM.
`CN1CCCC(Nc2nnc(-c3ccc(C(F)(F)F)cc3C(F)(F)F)c3cncn23)C1=O` (stereo not shown) [Compound 272, 3-({1-[2,4-bis(trifluoromethyl)phenyl]imidazo[1,5-d][1,2,4]triazin-4-yl}amino)-1-methylpiperidin-2-one] showed an IC50 of 1 to 10 nM.
For `O[C@@H]1COCC[C@H]1Nc1nnc(-c2ccc(C(F)(F)F)cc2C(F)(F)F)c2cncn12` [Compound 273, (3S,4R)-4-({1-[2,4-bis(trifluoromethyl)phenyl]imidazo[1,5-d][1,2,4]triazin-4-yl}amino)oxan-3-ol], the IC50 was 1 to 10 nM.
`O[C@H]1CCOC[C@@H]1Nc1nnc(-c2ccc(C(F)(F)F)cc2C(F)(F)F)c2cncn12` [Compound 274, (3S,4S)-3-({1-[2,4-bis(trifluoromethyl)phenyl]imidazo[1,5-d][1,2,4]triazin-4-yl}amino)oxan-4-ol] gave an IC50 of 10 to 100 nM.
Compound `O[C@H]1CC[C@@H](Nc2nnc(-c3ccc(C(F)(F)F)cc3C(F)(F)F)c3cncn23)CC1` [Compound 275, (1s,4s)-4-({1-[2,4-bis(trifluoromethyl)phenyl]imidazo[1,5-d][1,2,4]triazin-4-yl}amino)cyclohexan-1-ol] has an IC50 of 10 to 100 nM.
In the case of `O=C1NCCCC1Nc1nnc(-c2ccc(C(F)(F)F)cc2C(F)(F)F)c2cncn12` (stereo not shown) [Compound 276, 3-({1-[2,4-bis(trifluoromethyl)phenyl]imidazo[1,5-d][1,2,4]triazin-4-yl}amino)piperidin-2-one], the IC50 is reported as 10 to 100 nM.
For `COc1ccc(-c2nnc(N[C@@H]3C[C@@H](F)CN(C)C3)n3cncc23)c(CC(F)(F)F)c1` [Compound 277, N-[(3R,5R)-5-fluoro-1-methylpiperidin-3-yl]-1-[4-methoxy-2-(2,2,2-trifluoroethyl)phenyl]imidazo[1,5-d][1,2,4]triazin-4-amine], the IC50 was 1 to 10 nM.
For `COc1ccc(-c2nnc(N[C@@H]3CCCN(CCO)C3)n3cncc23)c(CC(F)(F)F)c1` [Compound 278, 2-[(3R)-3-({1-[4-methoxy-2-(2,2,2-trifluoroethyl)phenyl]imidazo[1,5-d][1,2,4]triazin-4-yl}amino)piperidin-1-yl]ethan-1-ol], the IC50 was under 1 nM.
Work on `Cc1ncn2c(N[C@@H]3CCCN(C)C3)nnc(-c3ccc(C(F)(F)F)cc3CC(F)(F)F)c12` [Compound 279, 8-methyl-N-[(3R)-1-methylpiperidin-3-yl]-1-[2-(2,2,2-trifluoroethyl)-4-(trifluoromethyl)phenyl]imidazo[1,5-d][1,2,4]triazin-4-amine] yielded an IC50 of under 1 nM.
`Cc1ncn2c(N[C@@H]3CCCC[C@H]3O)nnc(-c3ccc(C(F)(F)F)cc3CC(F)(F)F)c12` [Compound 280, (1R,2R)-2-({8-methyl-1-[2-(2,2,2-trifluoroethyl)-4-(trifluoromethyl)phenyl]imidazo[1,5-d][1,2,4]triazin-4-yl}amino)cyclohexan-1-ol] showed an IC50 of 1 to 10 nM.
`COc1ccc(-c2nnc(N[C@@H]3CCCN(C)C3)n3cncc23)c(C(F)(F)C(F)(F)F)c1` [Compound 281, 1-[4-methoxy-2-(pentafluoroethyl)phenyl]-N-[(3R)-1-methylpiperidin-3-yl]imidazo[1,5-d][1,2,4]triazin-4-amine] showed an IC50 of 1 to 10 nM.
`O[C@@H]1CCCC[C@H]1Nc1nnc(-c2ccc(C(F)(F)F)cc2CC(F)(F)F)c2cncn12` [Compound 282, (1R,2R)-2-({1-[2-(2,2,2-trifluoroethyl)-4-(trifluoromethyl)phenyl]imidazo[1,5-d][1,2,4]triazin-4-yl}amino)cyclohexan-1-ol] showed an IC50 of under 1 nM.
For `COc1ccc(-c2nnc(NC3CCNC3=O)n3cncc23)c(OC(F)(F)F)c1` (stereo not shown) [Compound 284, 3-({1-[4-methoxy-2-(trifluoromethoxy)phenyl]imidazo[1,5-d][1,2,4]triazin-4-yl}amino)pyrrolidin-2-one], the IC50 was 10 to 100 nM.
For `FC(F)(F)c1ccc(-c2nnc(Nc3cc[nH]n3)n3cncc23)c(C(F)(F)F)c1` [Compound 285, 1-[2,4-bis(trifluoromethyl)phenyl]-N-(1H-pyrazol-3-yl)imidazo[1,5-d][1,2,4]triazin-4-amine], the IC50 was 10 to 100 nM.

From patent US20250179078A1, “INHIBITORS OF NLRP3” (PTC THERAPEUTICS, INC., priority 2022, published 2025)
